Measured values taken from article PMC2901058 (The Journal of Experimental Medicine, 2010).

Tested on: JurkatCD8-TK3^WT, JurkatCD8-TK3^Gln55His, and JurkatCD8-TK3^Gln55Ala cell lines
Experiment: CD69 up-regulation by peptide on C1R-HLA-B*3501 APCs, JurkatCD8-TK3 lines
Format: cell-based, human
Settings: dose–response, peptide presented on C1R–HLA-B*3501; not depicted

Sequence: HPVGEADYFEY
- CD69 up-regulation, comparison between cell lines: no significant differences in CD69 up-regulation
